According to patent publication US4162307A, “Method for anaesthesia by use of a pentapeptide” (priority 1977, dated 1979):
Where a name gives a salt, the structure may show the parent alone.

Assays:
[1] = system: citric acid aerosol-induced coughs; assay: Antitussive testing, citric acid aerosol; format: in vivo, guinea-pigs
Description: J. Pharmacol, 39, (1970) 225.
(C) For antitussive testing, guinea-pigs are subjected to an aerosol containing 20% citric acid, 30 minutes after administration of compound (orally or subcutaneously). The number of coughs during a five minute exposure are counted and meaned for six animals per treatment. The method is that described by Boura, A. L. A., Green, A. F. and Saunders, I. A. Br. J. Pharmac., May 1970, Vol. 39, No. 1, page 225.
(§1) From the data obtained the respective ED50 figures were calculated (i.e. the dose required to elicit the appropriate effect in 50% of the animals). N.T.: not tested.

[2] = system: mouse hot plate; assay: Analgesia in mice in the hot plate test; format: in vivo
Description: (A) Analgesia in mice in the hot plate test (modification of the method of Eddy, N. B. et al., J. Pharm. Exp. Therap. (1953) 107, 385, the peptide being administered by intracerebroventricular injection).
as §1

[3] = system: righting, pinnal and corneal reflexes; assay: Anaesthetic effects tested intravenously; format: in vivo, mice; settings: loss of all three reflexes
Description: (D) Compounds are tested for anaesthetic effects following intracerebroventricular injection in mice. The animals are observed for loss of righting reflex (failure to roll over within 10 seconds of being turned on their backs), loss of pinnal reflex (failure to flick the ear in response to a light touch at the base of the pinna) and loss of corneal reflex (failure to blink when the cornea is touched lightly). Loss of all three reflexes constitutes anaesthesia. In addition, any other effects are noted. […] Interesting compounds are then tested intravenously in the same manner.
as §1

[4] = system: righting, pinnal and corneal reflexes; assay: Anaesthetic effects following intracerebroventricular injection in mice (loss of righting, pinnal and corneal reflexes); format: in vivo; settings: mouse, loss of all three reflexes
[5] = system: castor oil-induced diarrhoea; assay: Antidiarrhoeal activity in the rat (castor oil); format: in vivo
Description: (B) Antidiarrhoeal activity in the rat. In this procedure rats were straved for 24 hours, the peptide then administered either subcutaneously or orally followed after 15 minutes by 1 ml castor oil per rat given orally.
as §1

[6] = system: righting, pinnal and corneal reflexes; assay: Anaesthesia in laboratory animals (abolition of reflexes), standard pharmacological procedures; format: in vivo, rats and mice
[7] = system: isolated mouse vas deferens; assay: Neurally evoked contractions of the isolated mouse vas deferens
[8] = system: isolated guinea-pig ileum; assay: Electrically-induced contractions of the isolated guinea-pig ileum; settings: 0.1 Hz; 0.4 ms; 30-40 V
Text: (Each intestinal segment was impaled by the anode and suspended with a 2-3 g load. Stimulus parameters: frequency: 0.1 Hz; duration: 0.4 ms; voltage (supramaximal) 30-40 V; the contractions were transduced isotonically).

## CCNC(=O)[C@@H](CC(C)C)NC(=O)[C@H](Cc1ccccc1)NC(=O)CNC(=O)[C@@H](C)NC(=O)[C@@H](N)Cc1ccc(O)cc1 [H.Tyr.D-Ala.Gly.Phe.D-Leu.NHEt hydrochloride]
[1]; guinea-pig, 20% citric acid aerosol 30 minutes after administration, route not printed in table (orally or subcutaneously)
  ED50 antitussive: 2.0 mg/kg
[2]; i.c.v., dose eliciting the effect in 50% of the animals
  ED50 mouse hot plate, analgesia: 0.03 μg/mouse
[3]
  ED50 anaesthesia i.v.: 20 mg/kg
[4]
  ED50 anaesthesia i.c.v.: 2.8 μg/mouse
[5]; rat, s.c., castor oil 1 ml orally 15 minutes after peptide
  ED50 anti-diarrhoea: 10 mg/kg

## CN1CC[C@]23c4c5ccc(O)c4O[C@H]2[C@@H](O)C=C[C@H]3[C@H]1C5 [morphine, reference compound]
[6]; mice, acute bolus injection in up to lethal doses
  Effect on the righting reflex, morphine by acute bolus injection: does not abolish the righting reflex

## CCNC(=O)[C@@H](CC(C)C)NC(=O)[C@H](Cc1ccccc1)NC(=O)CNC(=O)[C@@H](C)NC(=O)[C@@H](N)Cc1ccc(O)cc1 [peptide of formula (I), h.tyr.D-Ala.Gly.Phe.D-Leu.NHEt]
[1]; guinea-pigs
  Antitussive activity: exhibits antitussive activity
[2]; mice, hot plate, naloxone
  Naloxone sensitivity of analgesic activity: abolished by naloxone
[2]; mice, intracerebroventricular injection
  Analgesic activity, hot plate: exhibits analgesic activity
[5]; rats, castor oil-induced diarrhoea
  Antidiarrhoeal activity: effective in reducing castor oil-induced diarrhoea
[6]; effects (i), (ii) and (iii), naloxone administered
  Reversal of reflex-abolishing effects by naloxone: may be reversed by administration of the known narcotic antagonist naloxone
[6]; laboratory animals
  Effect on the corneal reflex: Abolition of the corneal reflex
  Effect on the pinnal reflex: Abolition of the pinnal reflex
  Effect on the righting reflex: Abolition of the righting reflex
[6]; rats and mice, parenteral, e.g. intravenous or intracerebroventricular injection
  Induction and maintenance of anaesthesia: both to induce and to maintain anaesthesia
[7]; naloxone
  Naloxone sensitivity of vas deferens inhibition: abolished by the known narcotic antagonist naloxone
[7]; pulses at 0.1 Hz
  Effect on neurally evoked contractions of isolated mouse vas deferens: Inhibition of neurally evoked contractions
[8]
  Effect on electrically-induced contractions of isolated guinea-pig ileum: Reduction of electrically-induced contractions
